From the supplement of paper PMC10307832

Tests used:
Experiment in all cases: relative viability (nuclei count vs DMSO), 5 days (fraction); higher = more cells survive
Cediranib + Dasatinib = compound: COc1cc2c(Oc3ccc4[nH]c(C)cc4c3F)ncnc2cc1OCCCN1CCCC1 [Cediranib] + Cc1nc(Nc2ncc(C(=O)Nc3c(C)cccc3Cl)s2)cc(N2CCN(CCO)CC2)n1 [Dasatinib] (partner 0.075 µM)
In short: (§1)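 The day after seeding in 1536-well plates, lung cancer cell lines were treated by pin tool with a single drug, or with a fixed anchor-drug dose together with five library-drug doses (not always all listed) in √10 steps. After 5 days, a combined fix-and-stain solution (final 0.05% Triton X-100, 1% formaldehyde, 1 ug/ml Hoechst) was added. Nuclei counted on 4× images gave relative viability as treated counts over vehicle counts, reported as the median of duplicate plates.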

Decitabine + Pemetrexed = compound: Nc1ncn([C@H]2C[C@H](O)[C@@H](CO)O2)c(=O)n1 [Decitabine] + Nc1nc2[nH]cc(CCc3ccc(C(=O)N[C@@H](CCC(=O)O)C(=O)O)cc3)c2c(=O)[nH]1 [Pemetrexed] (partner 0.2 µM)
In short: as §1

[1] = compound: O=C(C[C@H]1NCCC[C@@H]1O)Cn1cnc2cc(Br)c(Cl)cc2c1=O (racemic) [Halofuginone] + CC(=O)Nc1cccc(-n2c(=O)n(C3CC3)c(=O)c3c(Nc4ccc(I)cc4F)n(C)c(=O)c(C)c32)c1 [Trametinib] (partner 0.02 µM)
In short: as §1

[2] = compound: O=C(C[C@H]1NCCC[C@@H]1O)Cn1cnc2cc(Br)c(Cl)cc2c1=O (racemic) [Halofuginone] + CS(=O)(=O)N1CCN(Cc2cc3nc(-c4cccc5[nH]ncc45)nc(N4CCOCC4)c3s2)CC1 [Pictilisib] (partner 1 µM)
In short: as §1

## UMC-11
Cediranib + Dasatinib; first compound 0.04 µM
  relative viability: 0.5
Cediranib + Dasatinib; first compound 0.4 µM
  relative viability: 0.426
Cediranib + Dasatinib; first compound 4 µM
  relative viability: 0.539
Decitabine + Pemetrexed; first compound 0.04 µM
  relative viability: 0.691
Decitabine + Pemetrexed; first compound 0.1265 µM
  relative viability: 0.563
Decitabine + Pemetrexed; first compound 0.4 µM
  relative viability: 0.406
Decitabine + Pemetrexed; first compound 1.265 µM
  relative viability: 0.358
Decitabine + Pemetrexed; first compound 4 µM
  relative viability: 0.351
[1]; first compound 0.001 µM
  relative viability: 0.8
[1]; first compound 0.003162 µM
  relative viability: 0.791
[1]; first compound 0.01 µM
  relative viability: 0.782
[1]; first compound 0.03162 µM
  relative viability: 0.603
[1]; first compound 0.1 µM
  relative viability: 0.456
[2]; first compound 0.001 µM
  relative viability: 0.9
[2]; first compound 0.003162 µM
  relative viability: 0.76
[2]; first compound 0.01 µM
  relative viability: 0.772
[2]; first compound 0.03162 µM
  relative viability: 0.758
[2]; first compound 0.1 µM
  relative viability: 0.648
